Experimental data from ChEMBL document CHEMBL4376868, “Structure-Activity Relationship Study of Novel 6-Aryl-2-benzoyl-pyridines as Tubulin Polymerization Inhibitors with Potent Antiproliferative Properties” (J Med Chem, 2020).

Test system: MDA-MB-231
Assay: Antiproliferative activity against human MDA-MB-231 cells measured after 72 hrs by MTS assay
Format: functional, cell-based
Details: MDA-MB-231, 72 h

Structure (SMILES)	IC50
COc1cc(C(=O)c2cccc(-c3ccc(C(F)(F)F)cc3)n2)cc(OC)c1OC	0.0236 µM
COc1cc(C(=O)c2cccc(-c3ccc([N+](=O)[O-])cc3)n2)cc(OC)c1OC	0.009 µM
COc1cc(C(=O)c2cccc(-c3ccncc3)n2)cc(OC)c1OC	> 1 µM
COc1cc(C(=O)c2cccc(-c3cccc(C)c3)n2)cc(OC)c1OC	0.0824 µM
COc1cc(C(=O)c2cccc(-c3ccsc3)n2)cc(OC)c1OC	0.0355 µM
COc1cc(C(=O)c2cccc(-c3ccc(C)c(N)c3)n2)cc(OC)c1OC	0.0028 µM
COc1cc(C(=O)c2cccc(-c3cccc4[nH]ccc34)n2)cc(OC)c1OC	0.0179 µM
COc1cc(C(=O)c2cccc(-c3ccc(C)c(O)c3)c2)cc(OC)c1OC	0.0359 µM
COc1cc(C(=O)c2cncc(-c3ccc(C)c(O)c3)c2)cc(OC)c1OC	0.0663 µM
COc1cc(C(=O)c2cccc(-c3ccc(C#N)cc3)n2)cc(OC)c1OC	0.0281 µM
COc1cc(C(=O)c2cc(O)cc(-c3ccc(C)cc3)n2)cc(OC)c1OC	> 1 µM

Test system: MDA-MB-453
Assay: Antiproliferative activity against human MDA-MB-453 cells measured after 72 hrs by MTS assay
Format: functional, cell-based
Details: MDA-MB-453, 72 h

Structure (SMILES)	IC50
COc1cc(C(=O)c2cccc(-c3ccc(C(F)(F)F)cc3)n2)cc(OC)c1OC	0.0079 µM
COc1cc(C(=O)c2cccc(-c3ccc([N+](=O)[O-])cc3)n2)cc(OC)c1OC	0.0069 µM
COc1cc(C(=O)c2cccc(-c3ccncc3)n2)cc(OC)c1OC	> 1 µM
COc1cc(C(=O)c2cccc(-c3cccc(C)c3)n2)cc(OC)c1OC	0.0636 µM
COc1cc(C(=O)c2cccc(-c3ccsc3)n2)cc(OC)c1OC	0.0385 µM
COc1cc(C(=O)c2cccc(-c3ccc(C)c(N)c3)n2)cc(OC)c1OC	0.0029 µM
COc1cc(C(=O)c2cccc(-c3cccc4[nH]ccc34)n2)cc(OC)c1OC	0.016 µM
COc1cc(C(=O)c2cccc(-c3ccc(C)c(O)c3)c2)cc(OC)c1OC	0.0156 µM
COc1cc(C(=O)c2cncc(-c3ccc(C)c(O)c3)c2)cc(OC)c1OC	0.0648 µM
COc1cc(C(=O)c2cccc(-c3ccc(C#N)cc3)n2)cc(OC)c1OC	0.0106 µM
COc1cc(C(=O)c2cc(O)cc(-c3ccc(C)cc3)n2)cc(OC)c1OC	> 1 µM

Test system: SK-BR-3
Assay: Antiproliferative activity against human SK-BR-3 cells measured after 72 hrs by MTS assay
Format: functional, cell-based
Details: SK-BR-3, 72 h

Structure (SMILES)	IC50
COc1cc(C(=O)c2cccc(-c3ccc(C(F)(F)F)cc3)n2)cc(OC)c1OC	0.007 µM
COc1cc(C(=O)c2cccc(-c3ccc([N+](=O)[O-])cc3)n2)cc(OC)c1OC	0.005 µM
COc1cc(C(=O)c2cccc(-c3ccncc3)n2)cc(OC)c1OC	> 1 µM
COc1cc(C(=O)c2cccc(-c3cccc(C)c3)n2)cc(OC)c1OC	0.061 µM
COc1cc(C(=O)c2cccc(-c3ccsc3)n2)cc(OC)c1OC	0.0673 µM
COc1cc(C(=O)c2cccc(-c3ccc(C)c(N)c3)n2)cc(OC)c1OC	0.0016 µM
COc1cc(C(=O)c2cccc(-c3cccc4[nH]ccc34)n2)cc(OC)c1OC	0.019 µM
COc1cc(C(=O)c2cccc(-c3ccc(C)c(O)c3)c2)cc(OC)c1OC	0.02 µM
COc1cc(C(=O)c2cncc(-c3ccc(C)c(O)c3)c2)cc(OC)c1OC	0.0627 µM
COc1cc(C(=O)c2cccc(-c3ccc(C#N)cc3)n2)cc(OC)c1OC	0.0123 µM
COc1cc(C(=O)c2cc(O)cc(-c3ccc(C)cc3)n2)cc(OC)c1OC	> 1 µM

Test system: A-375
Assay: Antiproliferative activity against human A375 cells measured after 72 hrs by MTS assay
Format: functional, cell-based
Details: A-375, 72 h

Structure (SMILES)	IC50
COc1cc(C(=O)c2cccc(-c3ccc(C(F)(F)F)cc3)n2)cc(OC)c1OC	0.0198 µM
COc1cc(C(=O)c2cccc(-c3ccc([N+](=O)[O-])cc3)n2)cc(OC)c1OC	0.0114 µM
COc1cc(C(=O)c2cccc(-c3ccncc3)n2)cc(OC)c1OC	> 1 µM
COc1cc(C(=O)c2cccc(-c3cccc(C)c3)n2)cc(OC)c1OC	0.0629 µM
COc1cc(C(=O)c2cccc(-c3ccsc3)n2)cc(OC)c1OC	0.0341 µM
COc1cc(C(=O)c2cccc(-c3ccc(C)c(N)c3)n2)cc(OC)c1OC	0.003 µM
COc1cc(C(=O)c2cccc(-c3cccc4[nH]ccc34)n2)cc(OC)c1OC	0.0093 µM
COc1cc(C(=O)c2cccc(-c3ccc(C)c(O)c3)c2)cc(OC)c1OC	0.0274 µM
COc1cc(C(=O)c2cncc(-c3ccc(C)c(O)c3)c2)cc(OC)c1OC	0.0606 µM
COc1cc(C(=O)c2cccc(-c3ccc(C#N)cc3)n2)cc(OC)c1OC	0.0123 µM
COc1cc(C(=O)c2cc(O)cc(-c3ccc(C)cc3)n2)cc(OC)c1OC	> 1 µM

Test system: M14
Assay: Antiproliferative activity against human M14 cells measured after 72 hrs by MTS assay
Format: functional, cell-based
Details: M14, 72 h

Structure (SMILES)	IC50
COc1cc(C(=O)c2cccc(-c3ccc(C(F)(F)F)cc3)n2)cc(OC)c1OC	0.0214 µM
COc1cc(C(=O)c2cccc(-c3ccc([N+](=O)[O-])cc3)n2)cc(OC)c1OC	0.0109 µM
COc1cc(C(=O)c2cccc(-c3ccncc3)n2)cc(OC)c1OC	> 1 µM
COc1cc(C(=O)c2cccc(-c3cccc(C)c3)n2)cc(OC)c1OC	0.0461 µM
COc1cc(C(=O)c2cccc(-c3ccsc3)n2)cc(OC)c1OC	0.0283 µM
COc1cc(C(=O)c2cccc(-c3ccc(C)c(N)c3)n2)cc(OC)c1OC	0.003 µM
COc1cc(C(=O)c2cccc(-c3cccc4[nH]ccc34)n2)cc(OC)c1OC	0.0122 µM
COc1cc(C(=O)c2cccc(-c3ccc(C)c(O)c3)c2)cc(OC)c1OC	0.0162 µM
COc1cc(C(=O)c2cncc(-c3ccc(C)c(O)c3)c2)cc(OC)c1OC	0.0571 µM
COc1cc(C(=O)c2cccc(-c3ccc(C#N)cc3)n2)cc(OC)c1OC	0.0128 µM
COc1cc(C(=O)c2cc(O)cc(-c3ccc(C)cc3)n2)cc(OC)c1OC	> 1 µM

Test system: RPMI-7951
Assay: Antiproliferative activity against human RPMI7951 cells measured after 72 hrs by MTS assay
Format: functional, cell-based
Details: RPMI-7951, 72 h

Structure (SMILES)	IC50
COc1cc(C(=O)c2cccc(-c3ccc(C(F)(F)F)cc3)n2)cc(OC)c1OC	0.0196 µM
COc1cc(C(=O)c2cccc(-c3ccc([N+](=O)[O-])cc3)n2)cc(OC)c1OC	0.0129 µM
COc1cc(C(=O)c2cccc(-c3ccncc3)n2)cc(OC)c1OC	> 1 µM
COc1cc(C(=O)c2cccc(-c3cccc(C)c3)n2)cc(OC)c1OC	0.0607 µM
COc1cc(C(=O)c2cccc(-c3ccsc3)n2)cc(OC)c1OC	0.0279 µM
COc1cc(C(=O)c2cccc(-c3ccc(C)c(N)c3)n2)cc(OC)c1OC	0.002 µM
COc1cc(C(=O)c2cccc(-c3cccc4[nH]ccc34)n2)cc(OC)c1OC	0.0065 µM
COc1cc(C(=O)c2cccc(-c3ccc(C)c(O)c3)c2)cc(OC)c1OC	0.0157 µM
COc1cc(C(=O)c2cncc(-c3ccc(C)c(O)c3)c2)cc(OC)c1OC	0.0636 µM
COc1cc(C(=O)c2cccc(-c3ccc(C#N)cc3)n2)cc(OC)c1OC	0.0119 µM
COc1cc(C(=O)c2cc(O)cc(-c3ccc(C)cc3)n2)cc(OC)c1OC	> 1 µM
